Values quoted from earlier work in patent publication US20130030007A1, “Obesity Small Molecules” (AKRON MOLECULES GMBH, priority 2010, published 2013).
Non-standard residues stand in square brackets, D forms with d. Residues, ends and D or L forms follow the SMILES beside them. *: point of attachment. Sta = CC(C)C[C@H](N)[C@@H](O)CC(=O)O; Isovaleryl = CC(C)CC(=O)*

Tested on: human ortholog of Drosophila obesity gene
Set-up: key: O: Obesity - obesity pathway interaction; B: validated binding partner
Settings: cited from earlier work

| Compound | Type: Type of interaction |
| --- | --- |
| CN(C)CC1CCCCC1(O)c1cccc(O)c1 (stereo not shown) [O-demethyltramadol] | O |
| Oc1ccccc1OC(c1ccccc1)C1CNCCO1 (stereo not shown) [O-desethylreboxetine] | B |
| C[C@@H](O)[C@@H]1NC(=O)[C@H](CCCCN)NC(=O)[C@@H](Cc2c[nH]c3ccccc23)NC(=O)[C@H](Cc2ccccc2)NC(=O)[C@@H](NC(=O)[C@H](N)Cc2ccccc2)CSSC[C@@H](C(=O)N[C@H](CO)[C@@H](C)O)NC1=O [Octreotide] | B and O |
| C[Si](Cn1cncn1)(c1ccc(F)cc1)c1ccc(F)cc1 [Olymp] | O |
| C[C@]12CCC(=O)C=C1CC[C@@H]1[C@@H]2[C@@H](O)C[C@@]2(C)[C@H]1CC[C@]2(O)C(=O)CO [Optef] | O |
| NCCc1cc(O)c(O)cc1O [Oxidopamine] | B |
| COc1cccc(-c2cc(=O)c3ccccc3o2)c1N [PD 98059] | B |
| O=[N+]([O-])c1ccc(-c2nc(-c3ccc(F)cc3)c(-c3ccncc3)[nH]2)cc1 [PD 169316] | B |
| CCN(CC)CCCCNc1ncc2cc(-c3cc(OC)cc(OC)c3)c(NC(=O)NC(C)(C)C)nc2n1 [PD 173074] | B |
| CCCC(=O)O[C@@H]1[C@@H](C)[C@@]2(O)[C@@H](C=C(CO)C[C@]3(O)C(=O)C(C)=C[C@@H]23)[C@@H]2C(C)(C)[C@]12OC(=O)CCC [PDBU] | O |
| O=S(=O)(F)Cc1ccccc1 [PMSF] | O |
| O=C1C=C2C(=CCOC2O)O1 (stereo not shown) [Patulin] | O |
| CC1=C\[C@H](C)C[C@@]2(C)CC[C@@H](O2)[C@@]23CC[C@@](C)(C[C@@H](O2)[C@H]2O[C@](C)(CC2=O)[C@@H](O)[C@@H]2CC[C@@]4(CCC[C@H](O4)[C@@H](C)C(=O)O[C@@H]4C[C@@H]([C@@]5(O)OCC[C@@H](C)[C@H]5O)O[C@@H]4\C=C\1)O2)O3 [Pectenotoxin II] | B |
| Cc1c(N)nc([C@H](CC(N)=O)NC[C@H](N)C(N)=O)nc1C(=O)N[C@H](C(=O)N[C@H](C)[C@@H](O)[C@H](C)C(=O)N[C@H](C(=O)NCCc1nc(-c2nc(C(=O)NCCCN[C@@H](C)c3ccccc3)cs2)cs1)[C@@H](C)O)[C@@H](O[C@@H]1O[C@@H](CO)[C@@H](O)[C@H](O)[C@@H]1O[C@H]1O[C@H](CO)[C@@H](O)[C@H](OC(N)=O)[C@@H]1O)c1c[nH]cn1 [Peplomycin] | B |
| CC(C)CC(=O)N[C@H](C(=O)N[C@H](C(=O)N[C@@H](CC(C)C)[C@@H](O)CC(=O)N[C@@H](C)C(=O)N[C@@H](CC(C)C)[C@@H](O)CC(=O)O)C(C)C)C(C)C [Pepstatin A] (Isovaleryl-VV[Sta]A[Sta]-OH) | O |
| CCCc1cc(=O)[nH]c(=S)[nH]1 [Procasil] | O |
| CC(C)OC(=O)C(C)(C)Oc1ccc(C(=O)c2ccc(Cl)cc2)cc1 [Procetofen] | O |
| CC(=O)[C@@]1(O)CC[C@H]2[C@@H]3CCC4=CC(=O)CC[C@]4(C)[C@H]3CC[C@@]21C [Prodix] | B |
| CC(C)c1cccc(C(C)C)c1O [Propofol] | B |
| Cc1cc(O)c2c(=O)c3c(O)cc(O)c4c5c(O)cc(O)c6c(=O)c7c(O)cc(CO)c8c1c2c(c34)c(c65)c78 [Pseudohypericin] | O |
| O[C@]12C=C(c3nccc4c3[nH]c3ccccc34)[C@@H]3CCN(CCCC/C=C\CC1)C[C@@]31C[C@@H]3/C=C\CCCCN3[C@H]12 [manzamine A] | O |
| COc1ccc2c(c1)[C@@]13CCCC[C@H]1[C@@H](C2)NCC3 [methoxymorphinan] | O |
| CO[C@H](C(=O)[C@@H](O)[C@@H](C)O)[C@@H]1Cc2cc3cc(O[C@H]4C[C@@H](O[C@H]5C[C@@H](O)[C@H](O)[C@@H](C)O5)[C@H](O)[C@@H](C)O4)c(C)c(O)c3c(O)c2C(=O)[C@H]1O[C@H]1C[C@@H](O[C@H]2C[C@@H](O[C@H]3C[C@](C)(O)[C@H](O)[C@@H](C)O3)[C@@H](O)[C@@H](C)O2)[C@H](O)[C@@H](C)O1 [mithramycin A] | B |
| CNCc1nnc2n1-c1ccc(Cl)cc1C(c1ccccc1)=NC2 [mono-N-demethyladinazolam] | O |
| C[C@@H]1C[C@H]2O[C@@H]2/C=C\C=C\C(=O)Cc2cc(O)cc(O)c2C(=O)O1 [monocillin I] | O |
| CN1CC[C@]23c4c5ccc(O[C@@H]6O[C@H](C(=O)O)[C@@H](O)[C@H](O)[C@H]6O)c4O[C@H]2[C@@H](O)C=C[C@H]3[C@H]1C5 [morphine-3-glucuronide] | B |
| CC1CC(=O)NN=C1c1cc(-n2ccnc2)cs1 (stereo not shown) [motapizone] | O |
| Oc1ccc2c3c1O[C@H]1c4[nH]c5ccccc5c4C[C@@]4(O)[C@@H](C2)N(CC2CC2)CC[C@]314 [naltrindole] | B |
| CO[C@H]1CC[C@@H](O[C@H]2C[C@H]([C@]3(C)CC[C@]4(C[C@H](O)[C@@H](C)[C@@H]([C@@H](C)/C=C(\C)C(=O)[C@H](C)C[C@H](C)C(=O)O)O4)O3)O[C@]3(O[C@@H]([C@H]4O[C@@](O)(CO)[C@H](C)C[C@@H]4C)C[C@@H]3C)[C@@H]2C)O[C@@H]1C [nanchangmycin] | O |
| [NH2][Pt]1([NH2])[O]CC(=O)[O]1 [nedaplatin] | O |

Same assay, conditions: interaction of the small molecule with the human ortholog(s) / Drosophila gene(s) listed in the same table line; cited from earlier work

| Compound | Type: Type of interaction |
| --- | --- |
| O=C(Nc1ccc(OC(F)(F)F)cc1)c1sccc1NCc1ccnc2ccccc12 [OSI 930] | O |
| NCC(=O)Nc1ccc(-n2nc(C(F)(F)F)cc2-c2ccc3c(ccc4ccccc43)c2)cc1 [OSU 03012] | B |
| NCCO [Olamine] | B |
| Cc1nccn1CC1CCc2c(c3ccccc3n2C)C1=O (stereo not shown) [Ondansetron] | O |
| CO[C@H]1O[C@H](COS(=O)(=O)O)[C@@H](O[C@@H]2O[C@@H](C(=O)O)[C@@H](O[C@H]3O[C@H](COS(=O)(=O)O)[C@@H](O[C@@H]4O[C@H](C(=O)O)[C@@H](O[C@H]5O[C@H](COS(=O)(=O)O)[C@@H](O)[C@H](O)[C@H]5NS(=O)(=O)O)[C@H](O)[C@H]4O)[C@H](OS(=O)(=O)O)[C@H]3NS(=O)(=O)O)[C@H](O)[C@H]2OS(=O)(=O)O)[C@H](O)[C@H]1NS(=O)(=O)O [Org 31540] | B |
| Cc1ccccc1C(OCCN(C)C)c1ccccc1 (stereo not shown) [Orphenadrine] | O |
| C[C@@H]1O[C@@H](O[C@H]2C[C@@H](O)[C@]3(CO)[C@H]4[C@H](O)C[C@]5(C)[C@@H](C6=CC(=O)OC6)CC[C@]5(O)[C@@H]4CC[C@]3(O)C2)[C@H](O)[C@H](O)[C@H]1O [Ouabain] | B |
| CCN(CC)CC#CCOC(=O)C(O)(c1ccccc1)C1CCCCC1 (stereo not shown) [Oxytrol] | O |
| CC(=O)O[C@H]1C(=O)[C@@]2(C)[C@H]([C@H](OC(=O)c3ccccc3)[C@]3(O)C[C@H](OC(=O)[C@H](O)[C@@H](NC(=O)c4ccccc4)c4ccccc4)C(C)=C1C3(C)C)[C@]1(OC(C)=O)CO[C@@H]1C[C@@H]2O [Paclitaxel] | B |
| Nc1nc2[nH]cc(CCc3ccc(C(=O)N[C@@H](CCC(=O)O)C(=O)O)cc3)c2c(=O)[nH]1 [Pemetrexed] | B |
| CC(=O)CCCCn1c(=O)c2c(ncn2C)n(C)c1=O [Pentoxifylline] | B |
| CN1CCN(CCCN2c3ccccc3Sc3ccccc32)CC1 [Perazine] | O |
| C=C(C)[C@@H]1CC=C(CO)CC1 [Perillol] | B |
| CCC[C@H](N[C@@H](C)C(=O)N1[C@H](C(=O)O)C[C@@H]2CCCC[C@@H]21)C(=O)OCC [Perindopril] | B |
| CCC(c1ccccc1)c1c(O)c2ccccc2oc1=O (stereo not shown) [Phenprocoumon] | O |
| O=C1NC(=O)C(c2ccccc2)(c2ccccc2)N1 [Phenytoin] | B |
| CN1C(C(=O)Nc2ccccn2)=C(O)c2ccccc2S1(=O)=O [Piroxicam] | B |

| Compound | Type: Type of interaction |
| --- | --- |
| COc1cc2nc(N3CCN(C(=O)c4ccco4)CC3)nc(N)c2cc1OC [Prazosin] | O |
| C[C@]12C=CC(=O)C=C1CC[C@@H]1[C@@H]2C(=O)C[C@@]2(C)[C@H]1CC[C@]2(O)C(=O)CO [Prednisone] | O |
| CCC1(c2ccccc2)C(=O)NCNC1=O [Primidone] | B |
| CCCC(C(=O)OCCN(CC)CC)(c1ccccc1)c1ccccc1 [Proadifen] | O |
| CCC(=O)[C@@]1(C)CC[C@H]2[C@@H]3CCC4=CC(=O)CCC4=C3CC[C@@]21C [Promegestone] | O |
| CC(=O)N[C@H]1/C(=N/OC(=O)Nc2ccccc2)O[C@H](CO)[C@@H](O)[C@@H]1O [Pugnac] | B |
| O=C(c1ccc(OCCN2CCCCC2)cc1)c1c(-c2ccc(O)cc2)sc2cc(O)ccc12 [Raloxifene] | B |
| O=c1c(O)c(-c2ccc(O)c(O)c2)oc2cc(O)cc(O)c12 [meletin] | B |
| Nc1ccc(O)c(C(=O)O)c1 [mesalamine] | B |
| Cc1cccc(C)c1N(Cn1cccn1)C(=O)CCl [metazachlor] | B |
| Cc1nc2nc(N)[nH]c(=O)c2nc1[C@@H](C)Nc1ccc(C[C@H](O)[C@H](O)[C@H](O)CO[C@H]2O[C@H](COP(=O)(O)O[C@@H](CCC(=O)O)C(=O)O)[C@@H](O)[C@H]2O)cc1 [methanopterin] | B |
| Clc1ccc(COC(Cn2ccnc2)c2ccc(Cl)cc2Cl)c(Cl)c1 (stereo not shown) [miconazole] | O |
| CCCCN1C[C@H](O)[C@@H](O)[C@H](O)[C@H]1CO [miglustat] | O |
| CN1CCN2c3ncccc3Cc3ccccc3C2C1 (stereo not shown) [mirtazapine] | B |
| CN(C)c1cccc2c(S(=O)(=O)NCCCCCN)cccc12 [monodansylcadaverine] | O |
| CCOc1cc(N)c(Cl)cc1C(=O)NCC1CN(Cc2ccc(F)cc2)CCO1 (stereo not shown) [mosapride] | O |
| CC(C)[C@H]1CC[C@H](C(=O)N[C@H](Cc2ccccc2)C(=O)O)CC1 [nateglinide] | O |
